Laboratory results as given in ChEMBL document CHEMBL1130971, “Endothelin antagonists: evaluation of 2,1,3-benzothiadiazole as a methylendioxyphenyl bioisoster” (Bioorg Med Chem Lett, 1998).

Target: T1, Endothelin-1 receptor (Rattus norvegicus, UniProt P26684)
T1 sequence (P26684 whole entry): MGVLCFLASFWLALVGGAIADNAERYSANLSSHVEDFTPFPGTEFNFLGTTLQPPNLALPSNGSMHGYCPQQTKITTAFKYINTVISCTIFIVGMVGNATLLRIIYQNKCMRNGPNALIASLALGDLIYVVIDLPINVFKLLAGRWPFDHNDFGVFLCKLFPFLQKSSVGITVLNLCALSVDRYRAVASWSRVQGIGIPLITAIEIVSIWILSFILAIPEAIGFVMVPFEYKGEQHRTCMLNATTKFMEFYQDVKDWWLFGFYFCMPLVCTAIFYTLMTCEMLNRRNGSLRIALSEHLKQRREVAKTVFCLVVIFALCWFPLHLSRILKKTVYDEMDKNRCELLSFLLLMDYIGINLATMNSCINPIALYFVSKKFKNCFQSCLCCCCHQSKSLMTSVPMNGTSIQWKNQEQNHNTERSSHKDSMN
Test: Inhibition of [125I]ET1 binding to rat aorta membrane Endothelin A receptor

Compound | IC50 [nM]
CCCOc1ccc2c(c1)c(-c1ccc3c(c1)OCO3)c(C(=O)O)n2Cc1ccc2c(c1)OCO2 | 250
CN(C)c1cccc2c(S(=O)(=O)Nc3ccc4c(c3)OCO4)cccc12 | 370
COc1ccc(-c2c(C(=O)O)c(=O)n(Cc3ccc4nsnc4c3)c3c2oc2ccccc23)cc1 | 390
CCCOc1ccc2c(c1)c(-c1ccc3c(c1)OCO3)c(C(=O)O)n2Cc1ccc2nonc2c1 | 2500
COc1ccc(-c2c(C(=O)O)c(=O)n(Cc3ccc4c(c3)OCO4)c3c2oc2ccccc23)cc1 | 1300

Continued, values first:

IC50 [nM] | Compound
150 | COc1cc2c(-c3ccc4c(c3)OCO4)c(C(=O)O)n(Cc3ccc4c(c3)OCO4)c2cc1OC
160 | CCCOc1ccc2c(c1)c(-c1ccc(OC)cc1)c(C(=O)O)n2Cc1cc2nsnc2cc1C
33 | COc1cc2c(-c3ccc4c(c3)OCO4)c(C(=O)O)n(Cc3ccc4nsnc4c3)c2cc1OC
210 | CCCOc1ccc2c(c1)c(-c1ccc(OC)cc1)c(C(=O)O)n2Cc1ccc2nsnc2c1
97 | CCCOc1ccc2c(c1)c(-c1ccc3c(c1)OCO3)c(C(=O)O)n2Cc1ccc2nsnc2c1
0.3 | COc1ccc(C2(O)OC(=O)C(c3ccc4nsnc4c3)=C2Cc2cc(OC)c(OC)c(OC)c2)cc1 (stereo not drawn)

Target: Endothelin-1 receptor (Rattus norvegicus)
Test: pA2 value towards endothelin receptor A was determined as functional ETA antagonism

Kb [nM] | Compound
3.16 | COc1ccc(C(=O)/C(Cc2cc(OC)c(OC)c(OC)c2)=C(\C(=O)O)c2ccc3nsnc3c2)cc1
25.1 | COc1ccc(C(=O)/C(Cc2cc(OC)c(OC)c(OC)c2)=C(\C(=O)O)c2ccc3c(c2)OCO3)cc1 [PD-156707 SODIUM]
